56 compounds from patent US5948786A, “Piperidinylpyrimidine derivatives” (Sumitomo Pharmaceuticals Company, Limited, priority 1996, dated 1999) can be followed below.

SMILES strings stand for the structures.

In the first experiment the test system is TNF α production from mouse macrophages. As to the kind of experiment: Inhibitory activity of compound on TNF α Production from mouse macrophages (LPS-induced PEC's). The experiment is classed as cell-based. Particulars: Macrophage, LPS 10 μg/ml, 18 hours. The protocol: BALB/c mice (female, 5-7 weeks old, Charles River Japan, Tokyo, Japan) were injected i.p. with 1 ml of 2.4% thioglycollate broth. After 4 days, the mice were sacrificed. Peritoneal exudated cells (PEC's) were collected from the peritoneal cavity by washing with minimum essential medium (MEM, Handai biseibutubyou kenkyukai, Osaka, Japan) containing 5 U/ml heparin, 1% fetal bovine serum (FBS, Filtron, Victoria, Australia) and antibiotics. The cells were washed two times with MEM, suspended with MEM containing 10% FBS (complete MEM, cMEM) and seeded into 96-well culture plates (Costar, Cambridge, Mass., USA) at 2×10^5 cells/well. The cells were incubated for 1 hour at 37° C. in a humidified 5% CO2 incubator and washed two times to remove non-adherent cells.
(§1) TNF α was induced by 10 μg/ml of LPS (E. coli O111B4, DIFCO, Detroit, Mich., USA) the cells were cultured for 18 hours at 37° C. A compound of the present invention was dissolved in DMSO and added to the culture simultaneously with LPS. The final DMSO concentration was below 0.1%. The TNF α concentration in supernatant and recombinant mouse TNF α standard (rm-TNF α, Genzyme, Mass., USA) were incubated overnight at 4° C. in a 96-well plate coated with anti-mouse TNF α monoclonal antibody (PharMingen, San Diego, Calif., USA) that previously had been blocked with 10% FBS. Each well of the plate first was incubated at room temperature with biotinylated anti-mouse TNF α polyclonal antibodies (PharMingen) for 45 minutes, then with peroxidase-conjugated streptavidin (Kirkegaard & Perry Laboratories Inc., Gaitherburg, Md., USA) for 30 minutes. After each incubation, the plate was washed 4 to 8 times with PBS containing 0.2% Tween 20. TMB (Kirkegaard & Perry Laboratories Inc.) was the peroxidase substrate used and, the absorbance of each well was quantified at 450 nm by a microplatereader (Molecular Devices Corp., CA, USA). TNF α levels in the supernatant were quantified with rm-TNF α as the standard.
Broadly, the inhibition is the drop in the measured response relative to a control, in per cent. `COc1ccc(Cc2cc(C3CCN(C(=O)c4cccc([N+](=O)[O-])c4)CC3)nc(N)n2)cc1` [Example 185]: the inhibition at 30 µM is 69%.

Consider `COc1ccc(Cc2cc(C3CCN(C(=O)CCO)CC3)nc(N)n2)cc1` [Example 177], for which the inhibition at 30 µM stood at 46%.

As to `COc1ccc2nc(N)nc(C3CCN(C(=O)Cc4ccc(Cl)cc4)CC3)c2c1` [Example 123], the inhibition at 30 µM was determined as 28%.

As for `Nc1nc(C2CCN(C(=O)c3ccncc3)CC2)c2ccccc2n1` [Example 51], the inhibition at 30 µM was 28%.

With `CCCCCC(=O)N1CCC(c2nc(N)nc3ccccc23)CC1` [Example 19], the inhibition at 30 µM was determined as 10%.

For the compound `COc1ccc(C(=O)N2CCC(c3nc(N)nc4ccc(OC)cc34)CC2)cc1` [Example 110], the inhibition at 30 µM is 21%.

Consider `COc1cc(C(=O)N2CCC(c3nc(N)nc4ccccc34)CC2)cc(OC)c1OC` [Example 72], for which the inhibition at 30 µM is 32%.

With `CCCCCCCCCC(=O)N1CCC(c2cc(-c3ccc(Cl)cc3)nc(N)n2)CC1` [Example 149], the inhibition at 30 µM is 57%.

As to `Nc1nc(C2CCN(C(=O)c3cccc4ccccc34)CC2)c2ccccc2n1` [Example 66], the inhibition at 30 µM worked out at 32%.

As for `COc1ccc(Cc2cc(C3CCN(C(=O)Cc4cc(OC)cc(OC)c4)CC3)nc(N)n2)cc1` [Example 238], the inhibition at 30 µM worked out at 96%.

As to `Nc1nc(C2CCN(C(=O)c3cccnc3)CC2)c2ccccc2n1` [Example 50], the inhibition at 30 µM was 18%.

In the case of `CCCCCCCCCCC(=O)N1CCC(c2cc(Cc3ccc(OC)cc3)nc(N)n2)CC1` [Example 171], the inhibition at 30 µM was 13%.

In the case of `CC(C)(C)C(=O)N1CCC(c2nc(N)nc3ccccc23)CC1` [Example 26], the inhibition at 30 µM is 19%.

For `NCCCCCCCC(=O)N1CCC(c2nc(N)nc3ccccc23)CC1` [Example 285, 2-amino-4-[1-(8-aminooctanoyl)-4-piperidinyl]quinazoline], the inhibition at 30 µM is 27%.

Regarding `COc1ccc(Cc2cc(C3CCN(C(=O)c4cccc(OC)c4OC)CC3)nc(N)n2)cc1` [Example 197], the inhibition at 30 µM amounted to 29%.

As to `COc1ccc(Cc2cc(C3CCN(C(=O)c4ccccc4Cl)CC3)nc(N)n2)cc1` [Example 181], the inhibition at 30 µM amounted to 26%.

Regarding `CCC(=O)N1CCC(c2nc(N)nc3ccccc23)CC1` [Example 16], the inhibition at 30 µM is 4%.

For `COc1ccc(Cc2cc(C3CCN(C(=O)c4c(OC)ccc(OC)c4OC)CC3)nc(N)n2)cc1` [Example 214], the inhibition at 30 µM came out at 13%.

Take `Nc1nc(C2CCN(C(=O)Cc3ccc([N+](=O)[O-])cc3)CC2)c2ccccc2n1` [Example 88]: the inhibition at 30 µM came out at 26%.

For the compound `COc1ccc(Cc2cc(C3CCN(C(=O)CCBr)CC3)nc(N)n2)cc1` [Example 175], the inhibition at 30 µM came to 48%.

As for `COc1ccc(Cc2cc(C3CCN(C(=O)C(C)(C)C)CC3)nc(N)n2)cc1` [Example 173], the inhibition at 30 µM was found to be 31%.

Take `CCCCCCCCCC(=O)N1CCC(c2cc(CCc3ccccc3)nc(N)n2)CC1` [Example 257]: the inhibition at 30 µM came to 90%.

As to `Nc1nc(-c2ccc(Cl)cc2)cc(C2CCN(C(=O)Cc3ccc([N+](=O)[O-])cc3)CC2)n1` [Example 153], the inhibition at 30 µM came out at 92%.

As to `COc1cccc(C(=O)N2CCC(c3nc(N)nc4ccccc34)CC2)c1` [Example 33], the inhibition at 30 µM was determined as 18%.

For the compound `COc1ccccc1C(=O)N1CCC(c2nc(N)nc3ccccc23)CC1` [Example 32], the inhibition at 30 µM was found to be 30%.

As for `COc1ccc(Cc2cc(C3CCN(C(=O)CCCl)CC3)nc(N)n2)cc1` [Example 174], the inhibition at 30 µM was determined as 54%.

Turning to `COc1ccc(Cc2cc(C3CCN(C(=O)c4cccc(Cl)c4)CC3)nc(N)n2)cc1` [Example 182], the inhibition at 30 µM came to 46%.

On to `COc1ccc(Cc2cc(C3CCN(C(=O)c4cc(Cl)ccc4Cl)CC3)nc(N)n2)cc1` [Example 205], for which the inhibition at 30 µM was 51%.

In the case of `COc1ccc(CC(=O)N2CCC(c3nc(N)nc4ccccc34)CC2)cc1OC` [Example 92], the inhibition at 30 µM is 68%.

`COc1ccc(Cc2cc(C3CCN(C(=O)c4ccc(OC)cc4OC)CC3)nc(N)n2)cc1` [Example 198]: the inhibition at 30 µM came to 29%.

In the case of `COc1ccc(Cc2cc(C3CCN(C(=O)Cc4ccccc4OC)CC3)nc(N)n2)cc1` [Example 222], the inhibition at 30 µM was found to be 36%.

Consider `CCCCCCCC(=O)N1CCC(c2cc(Cc3ccc(OC)cc3)nc(N)n2)CC1` [Example 168], for which the inhibition at 30 µM was 49%.

As to `COc1ccc(Cc2cc(C3CCN(S(=O)(=O)Cc4ccccc4)CC3)nc(N)n2)cc1` [Example 277], the inhibition at 30 µM was found to be 32%.

As for `CCCCCCCCC(=O)N1CCC(c2cc(-c3ccc(Cl)cc3)nc(N)n2)CC1` [Example 148], the inhibition at 30 µM worked out at 68%.

In the case of `COc1ccc(Cc2cc(C3CCN(C(=O)NCc4ccccc4)CC3)nc(N)n2)cc1` [Example 283, 2-amino-4-(1-benzylcarbamoyl-4-piperidinyl)-6-(4-methoxyphenylmethyl)pyrimidine], the inhibition at 30 µM stood at 81%.

As to `CCCCCCCC(=O)N1CCC(c2nc(N)nc3ccc(OC)cc23)CC1` [Example 104], the inhibition at 30 µM worked out at 50%.

`Nc1nc(-c2ccccc2)cc(C2CCN(C(=O)Cc3ccc(Cl)cc3)CC2)n1` [Example 143]: the inhibition at 30 µM is 55%.

Regarding `COc1cc(CC(=O)N2CCC(c3nc(N)nc4ccccc34)CC2)cc(OC)c1` [Example 93], the inhibition at 30 µM stood at 60%.

In the case of `Nc1nc(Cc2ccc(Cl)cc2)cc(C2CCN(C(=O)c3ccc4c(c3)OCO4)CC2)n1` [Example 250], the inhibition at 30 µM is 91%.

As for `Nc1nc(C2CCN(C(=O)Cc3ccc([N+](=O)[O-])cc3[N+](=O)[O-])CC2)c2ccccc2n1` [Example 97], the inhibition at 30 µM came out at 45%.

Consider `Nc1nc(C2CCN(C(=O)Cc3ccc(Cl)cc3Cl)CC2)c2ccccc2n1` [Example 94], for which the inhibition at 30 µM stood at 78%.

With `CCCCCCCC(=O)N1CCC(c2cc(CCc3ccccc3)nc(N)n2)CC1` [Example 255], the inhibition at 30 µM was determined as 47%.

`CCCCCCCCC(=O)N1CCC(c2cc(Cc3ccc(Cl)cc3)nc(N)n2)CC1` [Example 248]: the inhibition at 30 µM is -6%.

For `COc1ccc(CC(=O)N2CCC(c3cc(-c4ccccc4)nc(N)n3)CC2)cc1` [Example 142], the inhibition at 30 µM came out at 55%.

`COc1ccc(Cc2cc(C3CCN(C(=O)Cc4ccccc4Cl)CC3)nc(N)n2)cc1` [Example 225]: the inhibition at 30 µM was determined as 43%.

`CCCCCCCCCC(=O)N1CCC(c2nc(N)nc3ccc(OC)cc23)CC1` [Example 106]: the inhibition at 30 µM came out at 54%.

Turning to `CCCCCCCCC(=O)N1CCC(c2cc(Cc3ccc(OC)cc3)nc(N)n2)CC1` [Example 169], the inhibition at 30 µM was 12%.

On to `CCCCCCCCCC(=O)N1CCC(c2nc(N)nc3ccc(Cl)cc23)CC1` [Example 129], for which the inhibition at 30 µM was 48%.

In the case of `COc1ccc(Cc2cc(C3CCN(C(=O)Cc4ccc(Cl)c(Cl)c4)CC3)nc(N)n2)cc1` [Example 241], the inhibition at 30 µM amounted to 95%.

As to `COc1ccc(Cc2cc(C3CCN(C(=O)c4ccccc4OC)CC3)nc(N)n2)cc1` [Example 178], the inhibition at 30 µM turned out to be 76%.

As for `COc1ccc(Cc2cc(C3CCN(C(=O)c4cc(Cl)cc(Cl)c4Cl)CC3)nc(N)n2)cc1` [Example 218], the inhibition at 30 µM was found to be 55%.

As to `CCCCCCCC(=O)N1CCC(c2cc(Cc3ccc(Cl)cc3)nc(N)n2)CC1` [Example 247], the inhibition at 30 µM stood at 21%.

For `Nc1nc(C2CCN(C(=O)c3ccc([N+](=O)[O-])cc3)CC2)c2ccccc2n1` [Example 40], the inhibition at 30 µM was found to be 15%.

A further experiment deals with TNF α production from human peripheral blood mononuclear cells (PBMC). Kind of experiment: Inhibitory activity of compound on TNF α production from PBMC. The format is cell-based.
Conditions: not given
The protocol:
as §1, with “The final DMSO concentration was below 0.1%. The TNF α concentration in supernatant and recombinant mouse TNF α standard (rm-TNF α, Genzyme, Mass., USA) were incubated overnight at 4° C. in a 96-well plate coated with anti-mouse TNF α monoclonal antibody (PharMingen, San Diego, Calif., USA) that previously had been blocked with 10% FBS.” left out, “standard. Inhibitory activity of TNF α production was also quantified using human peripheral blood mononuclear cells(PBMC) instead of PEC's. Results are shown in table 9, 10, 11, 12, 13, 14, 15, 16, 17, 18, 19 and 20.” for “standard.”
Take `COc1ccc(Cc2cc(C3CCN(C(=O)c4ccc(F)c(F)c4)CC3)nc(N)n2)cc1` [Example 292]: the inhibition at 30 µM was 66%.

As to `COc1ccc(Cc2cc(C3CCN(C(=O)c4ccc(OC)c(O)c4)CC3)nc(N)n2)cc1` [Example 301], the inhibition at 30 µM came out at 88%.

Turning to `COc1ccc(Cc2cc(C3CCN(C(=O)c4ccc5c(c4)OCCO5)CC3)nc(N)n2)cc1` [Example 291], the inhibition at 30 µM is 88%.
